{
  "source": "patent US20070167492A1",
  "about": "“Molluscicidal agents” (priority 2003, published 2007)",
  "format_in_all_cases": "in vivo",
  "key": {"[1]": {"test_system": "Winter wheat (Kampa race) seeds", "assay": "Seed germination test of treated winter wheat seeds (rolled in paper)", "conditions": "3x50 seeds, 6 days at 22° C.", "outline": "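Seeds were disinfected with fludioxonil-containing Beret Gold (2 ml per kg seed) and coated with Sepiret® for formulations unsuitable for coating. Germination of 3×50 seeds rolled in paper was scored after 6 days at continuous 22° C. under a 16 hours light regime.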"}, "[2]": {"test_system": "Deroceras reticulatum (grey field slug)", "assay": "Example 1: pot test, treated winter wheat seed with 5 adult slugs per pot, 14 days", "outline": "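Fludioxonil-disinfected winter wheat seed (Kampa, 40 per pot) sown on quartz sand over potting soil with 5 adult slugs per pot; ±15° C., ±90% RH, 12 h light/12 h dark, 4 replicates. Damaged seeds, plants, dead slugs and fecal pellets counted up to day 14; F-tests and Student-tests.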"}, "[3]": {"test_system": "Deroceras reticulatum (grey field slug)", "assay": "Example 2: pot re-test, treated winter wheat seed with 5 adult slugs per pot, 7 days", "description": "Based on the results of the experiment described in Example 1, a selection was made from the various test numbers of that experiment for re-testing, partly to confirm the conclusions of that experiment and to test the unexpected outcome of some test compounds.\nThe selection of test numbers (Test No.) used in the present experiment relative to those of the experiment described in Example 1 is shown in Table 7.\nThe same seeds as described in Example 1 were sown in earthenware pots with an internal diameter of 20 cm and a height of 18 cm, filled with 7 cm of potting soil (Trio BV, Weesp, The Netherlands) and with a top 2 cm of white quartz sand. A total of 40 winter wheat seeds was placed in each pot, in a pattern of concentric circles on top of the quartz sand, the germ of the seed facing upwards. To each pot a total of 5 adult specimens of the test slug Deroceras reticulatum (grey field slug) were added. The pots were incubated at 18-19° C. with a relative humidity of ±95% and light regime of ±18 hours light/6 hours dark, without artificial lighting. The pots were not irrigated overhead. In total, 4 parallel tests were performed for each test.\nThe number of damaged seeds was, the number of plants present (germinated and not eaten or damaged by the slugs), the number of dead slugs and of the number of fecal pellets were determined after 2, 3 and 7 days following the addition of the slugs.\nThe data were statistically analysed by using F-tests (α=0.05) and pair-wise Student-tests."}, "[4]": {"test_system": "Grey field slug (Deroceras reticulatum)", "assay": "Example 3:  trial oilseed rape, treated seed, 5 slugs per plot", "conditions": "doses of 10.4 and 20.8 ml per kg seed", "description": "The compounds and doses used are described in table 12.\nTrial Data Cultivaton • Location: Glasshouse • Plots consist of: One earthenware pot, diameter 20 cm, height 18 cm • Trial medium: 7 cm of peat based potting compost, covered with silversand • Cultivar: Talent (00) • Thousand seed weight: 7.0 g • Seed treatments: Carried out on 12 Mar. 2004. The fungicide treatment was 4 g a.i. TMTD per kg seed • Sowing date: 9 Apr. 2004 • Number of seeds per pot: 40 • Experimental layout: Randomised block design • Number of replicates: 4 (I to IV), Annex 1 • Temperature during cultivation: 16 hours 20° C., 8 hours 15° C. Trial • Location: Laboratory • Starting date: 20 Apr. 2004 • Slug species: Grey field slug (Deroceras reticulatum). The slugs were collected from the field and only healthy individuals were used. • Number of slugs per plot: 5 • Temperature during trial: ±18° C. • Relative humidity during trial: ±90% Assessment\nAfter starting the trial, assessments were made on 21, 23 and 26 April. At each assessment, the total numbers of plants, the numbers of attacked plants, the numbers of dead slugs and the numbers of fecal pellets were counted. […] In addition, the numbers of normal plants were counted on 23 and 26 April and the fresh aboveground plant weight per plot was assessed on 27 April. […]\nData were analysed using analysis of variance and Student's t-distribution with the PPAIR procedure."}, "[5]": {"conditions": "2 ml formulated per kg seed, 2 days after sowing"}, "[6]": {"conditions": "2 ml formulated per kg seed, 3 days after sowing"}, "[7]": {"conditions": "2 ml formulated per kg seed, 7 days after sowing"}, "[8]": {"conditions": "2 ml formulated per kg seed, 10 days after sowing"}, "[9]": {"conditions": "2 ml formulated per kg seed, 14 days after sowing"}, "[10]": {"conditions": "10 ml formulated per kg seed, 2 days after sowing"}, "[11]": {"conditions": "10 ml formulated per kg seed, 3 days after sowing"}, "[12]": {"conditions": "10 ml formulated per kg seed, 7 days after sowing"}, "[13]": {"conditions": "10 ml formulated per kg seed, 10 days after sowing"}, "[14]": {"conditions": "10 ml formulated per kg seed, 14 days after sowing"}, "[15]": {"conditions": "Example 2, 2 ml formulated per kg seed, 2 days after sowing"}, "[16]": {"conditions": "Example 2, 2 ml formulated per kg seed, 3 days after sowing"}, "[17]": {"conditions": "Example 2, 2 ml formulated per kg seed, 7 days after sowing"}, "[18]": {"conditions": "Example 2, after 2, 3 and 7 days"}},
  "note": "“Also recorded” adds a separate entry of the source.",
  "data": [
    {"smiles": "N#CN=C1SCCN1Cc1ccc(Cl)nc1", "note": "[thiacloprid, N-[3-(6-chloropyridin-3-ylmethyl)thiazolidin-2-ylidene]cyanamide]", "values": [
      {"measurement": "Percentage germinated", "setting": "[1]; 2 ml formulated per kg seed", "value": 73, "unit": "%"},
      {"measurement": "Percentage germinated", "setting": "[1]; 10 ml formulated per kg seed", "value": 58, "unit": "%"},
      {"measurement": "number of utilizable plants after 14 days", "setting": "[2]; 2 ml formulated per kg seed", "value": 28.8},
      {"measurement": "percentage of damaged seeds after 14 days", "setting": "[2]; 2 ml formulated per kg seed", "value": 13, "unit": "%"},
      {"measurement": "Mean number of damaged seeds per pot", "setting": "[2]; [5]", "value": 1.3},
      {"measurement": "Mean number of dead slugs per pot", "setting": "[2]; [5]", "value": 0},
      {"measurement": "Mean number fecal pellets per pot", "setting": "[2]; [6]", "value": 14},
      {"measurement": "Mean number of damaged seeds per pot", "setting": "[2]; [6]", "value": 3.3},
      {"measurement": "Mean number of dead slugs per pot", "setting": "[2]; [6]", "value": 0.3},
      {"measurement": "Mean number of plants present per pot", "setting": "[2]; [6]", "value": 6.3},
      {"measurement": "Mean number fecal pellets per pot", "setting": "[2]; [7]", "value": 23},
      {"measurement": "Mean number of damaged seeds per pot", "setting": "[2]; [7]", "value": 7.5},
      {"measurement": "Mean number of dead slugs per pot", "setting": "[2]; [7]", "value": 0.5},
      {"measurement": "Mean number of plants present per pot", "setting": "[2]; [7]", "value": 27.8},
      {"measurement": "Mean number fecal pellets per pot", "setting": "[2]; [8]", "value": 17},
      {"measurement": "Mean number of damaged seeds per pot", "setting": "[2]; [8]", "value": 5.5},
      {"measurement": "Mean number of dead slugs per pot", "setting": "[2]; [8]", "value": 0.5},
      {"measurement": "Mean number of plants present per pot", "setting": "[2]; [8]", "value": 28.5},
      {"measurement": "Mean number fecal pellets per pot", "setting": "[2]; [9]", "value": 21},
      {"measurement": "Mean number of damaged seeds per pot", "setting": "[2]; [9]", "value": 5.3},
      {"measurement": "Mean number of dead slugs per pot", "setting": "[2]; [9]", "value": 0.8},
      {"measurement": "Mean number of plants present per pot", "setting": "[2]; [9]", "value": 29.3},
      {"measurement": "number of utilizable plants after 14 days", "setting": "[2]; 10 ml formulated per kg seed", "value": 34.5},
      {"measurement": "percentage of damaged seeds after 14 days", "setting": "[2]; 10 ml formulated per kg seed", "value": 8, "unit": "%"},
      {"measurement": "Mean number of damaged seeds per pot", "setting": "[2]; [10]", "value": 0.5},
      {"measurement": "Mean number of dead slugs per pot", "setting": "[2]; [10]", "value": 0},
      {"measurement": "Mean number fecal pellets per pot", "setting": "[2]; [11]", "value": 5},
      {"measurement": "Mean number of damaged seeds per pot", "setting": "[2]; [11]", "value": 1.5},
      {"measurement": "Mean number of dead slugs per pot", "setting": "[2]; [11]", "value": 0},
      {"measurement": "Mean number of plants present per pot", "setting": "[2]; [11]", "value": 10.5},
      {"measurement": "Mean number fecal pellets per pot", "setting": "[2]; [12]", "value": 8},
      {"measurement": "Mean number of damaged seeds per pot", "setting": "[2]; [12]", "value": 3.3},
      {"measurement": "Mean number of dead slugs per pot", "setting": "[2]; [12]", "value": 0},
      {"measurement": "Mean number of plants present per pot", "setting": "[2]; [12]", "value": 32.8},
      {"measurement": "Mean number fecal pellets per pot", "setting": "[2]; [13]", "value": 7},
      {"measurement": "Mean number of damaged seeds per pot", "setting": "[2]; [13]", "value": 3.3},
      {"measurement": "Mean number of dead slugs per pot", "setting": "[2]; [13]", "value": 0.3},
      {"measurement": "Mean number of plants present per pot", "setting": "[2]; [13]", "value": 34.0},
      {"measurement": "Mean number fecal pellets per pot", "setting": "[2]; [14]", "value": 9},
      {"measurement": "Mean number of damaged seeds per pot", "setting": "[2]; [14]", "value": 3.3},
      {"measurement": "Mean number of dead slugs per pot", "setting": "[2]; [14]", "value": 0.3},
      {"measurement": "Mean number of plants present per pot", "setting": "[2]; [14]", "value": 34.8},
      {"measurement": "damaged seeds relative to untreated control seed", "setting": "[2]; Example 1, 2 or 10 ml per kg of seed, at each observation (after 2 days only 10 ml)", "value": "less damaged seeds than the untreated control seed"},
      {"measurement": "protection of the wheat against slugs (conclusion)", "setting": "[2]; Example 1, already at a low dose of 2 ml", "value": "good protection of the wheat against slugs"},
      {"measurement": "fecal pellets relative to the untreated seed", "setting": "[2]; Example 1, at each dosage and at each observation", "value": "large and significant reduction in the number of fecal pellets; also recorded: significantly less fecal pellets"},
      {"measurement": "plants present and utilizable plants relative to the untreated seed", "setting": "[2]; Example 1, both 2 and 10 ml per kg of seed, after 7 days", "value": "significantly more plants present and utilizable plants"},
      {"measurement": "comparison with imidacloprid (fecal pellets, damaged seeds, plants present, utilizable plants)", "setting": "[2]; Example 1, two weeks after the start", "value": "scored surprisingly better than the related compound imidacloprid"},
      {"measurement": "result of seed treatment against slugs (conclusion)", "setting": "[3]; Example 2", "value": "good results"},
      {"measurement": "percentage of damaged seeds after 7 days", "setting": "[3]; Example 2, 2 ml formulated per kg seed", "value": 14, "unit": "%"},
      {"measurement": "Mean number of damaged seeds per pot", "setting": "[3]; [15]", "value": 3.5},
      {"measurement": "Mean number of dead slugs per pot", "setting": "[3]; [15]", "value": 0},
      {"measurement": "Mean number of damaged seeds per pot", "setting": "[3]; [16]", "value": 4.5},
      {"measurement": "Mean number of dead slugs per pot", "setting": "[3]; [16]", "value": 0},
      {"measurement": "Mean number of damaged seeds per pot", "setting": "[3]; [17]", "value": 5.8},
      {"measurement": "Mean number of dead slugs per pot", "setting": "[3]; [17]", "value": 0.3},
      {"measurement": "number of fecal pellets per pot relative to the untreated control", "setting": "[3]; [18]", "value": "significant reduction in the number of fecal pellets"},
      {"measurement": "plants present relative to the untreated seed", "setting": "[3]; [18]", "value": "significantly more plants present"},
      {"measurement": "number of damaged seeds relative to the untreated seed", "setting": "[3]; Example 2, two days after the start", "value": "significant reduction in the number of damaged seeds"},
      {"measurement": "Mean number of fecal pellets per pot", "setting": "[3]; dosage 2 ml, 2 days", "value": 8},
      {"measurement": "Mean number of plants present per pot", "setting": "[3]; dosage 2 ml, 2 days", "value": 12.5},
      {"measurement": "Mean number of fecal pellets per pot", "setting": "[3]; dosage 2 ml, 3 days", "value": 14},
      {"measurement": "Mean number of plants present per pot", "setting": "[3]; dosage 2 ml, 3 days", "value": 24.0},
      {"measurement": "Mean number of fecal pellets per pot", "setting": "[3]; dosage 2 ml, 7 days", "value": 17},
      {"measurement": "Mean number of plants present per pot", "setting": "[3]; dosage 2 ml, 7 days", "value": 29.5},
      {"measurement": "number of utilizable plants after 7 days", "setting": "[3]; dosage 2 ml, 7 days", "value": 23.5},
      {"measurement": "damage (conclusion)", "setting": "[4]", "value": "decreases the damage"}
    ]}
  ]
}
